Test results taken from patent US20250275538A1, “COMPOSITIONS CONTAINING L-CARNITINE AND SEAWEED EXTRACT FOR MITIGATING ABIOTIC STRESS IN PLANTS” (ACADIAN SEAPLANTS LIMITED, priority 2022, published 2025).

Assays:
Assay type in all cases: in vivo
[1] = tested on: winter wheat (cv. Marius); assay: Wheat drought stress greenhouse trial (seed treatment); conditions: ANE alone 1 ml/kg, CAR alone 0.3 g/kg; for plant vigour, Mean: 0-10 scale
Procedure: Winter wheat seed (cv. Marius) was treated at a total application volume of 10 ml/kg with water (unstressed control and stressed control treatment groups), or an aqueous solution of Ascophyllum nodosum extract (ANE) at 1 ml/kg, or an aqueous solution of L-carnitine hydrochloride (CAR) at 0.3 g/kg, or combinations of Ascophyllum nodosum extract at 1 ml/kg with either 0.1, 0.2, 0.3, or 0.4 g/kg L-carnitine hydrochloride. Treated wheat seed was sown in soil in pots with 10 biological replicates per treatment group in a randomized complete block design. Four days after full emergence, drought stress was imposed on all but the unstressed control treatment group through a 50% reduced irrigation regime relative to the full irrigation received by the unstressed control group.

[2] = tested on: winter wheat (cv. Marius); assay: Wheat salinity stress greenhouse trial (seed treatment); conditions: ANE alone 1 ml/kg, CAR alone 0.3 g/kg
Procedure: Winter wheat seed (cv. Marius) was treated at a total application volume of 10 ml/kg with water (unstressed control and stressed control treatment groups), or an aqueous solution of Ascophyllum nodosum extract (ANE) at 1 ml/kg, or an aqueous solution of L-carnitine hydrochloride (CAR) at 0.3 g/kg, or combinations of Ascophyllum nodosum extract at 1 ml/kg with either 0.1, 0.2, 0.3, or 0.4 g/kg L-carnitine hydrochloride. Treated wheat seed was sown in pots containing soil with 10 biological replicates per treatment group in a randomized complete block design. Four days after full emergence, salinity stress was imposed on all but the unstressed control treatment group through irrigation with saline water (8 g/l NaCl) for the remainder of the trial. The unstressed control treatment group was irrigated with non-saline water.

[3] = tested on: soybean (cv. Mungo); assay: Soybean drought stress greenhouse trial (seed treatment); conditions: 51 days after sowing, ANE alone 1 ml/kg, CAR alone 0.3 g/kg
Procedure: Soybean seed (cv. Mungo) was treated at a total application volume of 10 ml/kg with water (unstressed control and stressed control treatment groups), or an aqueous solution of Ascophyllum nodosum extract (ANE) at 1 ml/kg, or an aqueous solution of L-carnitine hydrochloride (CAR) at 0.3 g/kg, or combinations of Ascophyllum nodosum extract at 1 ml/kg with either 0.1, 0.2, 0.3, or 0.4 g/kg L-carnitine hydrochloride. Treated soybean seed was sown in pots containing soil with 10 biological replicates per treatment group in a randomized complete block design. Four days after full emergence, drought stress was imposed on all but the unstressed control treatment group through a 50% reduced irrigation regime relative to the full irrigation received by the unstressed control group.

[4] = tested on: corn (cv. H140354); assay: Corn drought stress controlled environment room trial (seed treatment); conditions: 10 days after sowing
Procedure: Corn seed (cv. H140354) was treated at a total application volume of 10 ml/kg with water (unstressed control and stressed control treatment groups), or an aqueous solution of Ascophyllum nodosum extract (ANE) at 2 ml/kg, or an aqueous solution of L-carnitine hydrochloride (CAR) at 0.3 g/kg, or a combinations of Ascophyllum nodosum extract at 2 ml/kg and 0.3 g/kg L-carnitine hydrochloride. Treated corn seed was sown in field soil inside cell packs set in greenhouse trays with 16 biological replicates per treatment group in a randomized complete block design. Three days after seeding, drought stress was imposed on all but the unstressed control treatment group through a 75% reduced irrigation regime relative to the full irrigation received by the unstressed control group, and assessments were made ten days after seeding.

[5] = tested on: wheat (cultivar Skyfall, ref. SEED-0035); assay: Wheat subject to cold stress (seed treatment), NPQt and synergy assessment; conditions: 10 days after sowing, ANE alone 0.36 g
Procedure: Seed Treatment solutions were prepared per Table 20:
0.1 mL of treatment solution was pipetted into a 500-mL glass beaker around the edges and 10 g of wheat seed (cultivar Skyfall, ref. SEED-0035) was added. The beaker was swirled by hand for 1 min to coat the seeds, which were then swirled intermittently until dry, if needed.
The trial was set up according to the following protocol: • 1. 32 8-0-6 cell packs were labelled with coloured stickers to denote five treatments with 4 cell packs for non-stress controls and 7 for the remaining 4 treatments. • 2. In a container 6 L of stored field soil and 600 mL water were mixed thoroughly. • 3. If soil was too dry, an additional 300 mL water, or an amount as appropriate, was added. • 4. […]
An estimate of non-photochemical quenching (NPQt), which is the amount of incoming light that is regulated away from photosynthetic processes in order to reduce damage to the plant was obtained using the MultispeQ (B-4003-AA) from PhotosynQ, according to manufaturer's directions. For the photosynthesis measuments a total of 12-14 plants per treatment were measured. […]
To supplement the observed evidence of efficacy, a synergy assessment was made. Synergy was calculated using two different methodologies, both of which find support in the literature: 1) Equation Ill from Colby, S. R. 1967. […]

[6] = tested on: Marula soybean (reference SEED-003); assay: Soybean subject to salinity stress (seed treatment), NPQt, shoot weight and synergy assessment; conditions: 17 days after sowing, ANE alone 0.36 g
Procedure: To supplement the observed evidence of efficacy, a synergy assessment was made. Synergy was calculated using two different methodologies, both of which find support in the literature: 1) Equation Ill from Colby, S. R. 1967. Calculating synergistic and antagonistic responses of herbicide combinations. Weed Science 15:20-22. and 2) Equation 2 from Huang, Z., and K. A. Falco. 2021. Synergy assessment for plant growth by independent joint action theory. HortScience 56(5):623-626. doi: 10.21273/HORTSC115731-21. A one-sample, two-tailed t-test was used to assess the statistical significance of the difference between the observed and predicted means. The same Seed Treatments solutions (Table 20) and trial protocol were used as in Example 6, but seeds were planted at 1.5″. To coat seeds, 0.3 mL of treatment solution was pipetted into a 500-mL glass beaker around the edges and 30 g of soybean seed was added. Marula soybean seed (reference SEED-003) from Prograin was used, without any other treatment. An estimate of NPQt was obtained using the MultispeQ™ (B-4003-AA) from PhotosynQ, according to manufaturer's directions. For the photosynthesis measuments a total of 12-14 plants per treatment were measured. For Example 7, parametric analysis of variance (ANOVA) was done using the aov function in the ggpubr package, and multiple comparison testing was done with the Tukey test (alpha=0.1) using the TukeyHSD function in the stats package in R. Shoot weight was evaluated to assess whether the positive effects observed in NPQt was reflected in more robust plant grown. Seven cell packs per treatment were measured for shoot weight.

[7] = 50 days after sowing, drought stress (50% reduced irrigation)
[8] = compared to stressed control, 50 days after sowing, drought stress
[9] = drought stress (50% reduced irrigation)
[10] = compared to stressed control, drought stress
[11] = drought stress (75% reduced irrigation), ANE alone 2 ml/kg, CAR alone 0.3 g/kg
[12] = compared to stressed control, drought stress, ANE alone 2 ml/kg, CAR alone 0.3 g/kg
[13] = compared to stressed control, Carnitine alone 0.30 g

Question: Which results are given for C[N+](C)(C)C[C@H](O)CC(=O)[O-].Cl [CAR, L-carnitine hydrochloride]?
Answer: plant vigour, Mean ([1]; 21 days after sowing, drought stress (50% reduced irrigation), combinations as labelled): 7.60; plant vigour, Mean ([1]; 42 days after sowing, drought stress (50% reduced irrigation)): 8.35; foliar fresh weight, Mean [1, 7]: 9.94; root fresh weight, Mean [1, 7]: 3.66; plant vigour, Difference (%) ([1]; compared to stressed control, 21 days after sowing, drought stress): 7.0%; plant vigour, Difference (%) ([1]; compared to stressed control, 42 days after sowing, drought stress): 11.3%; foliar fresh weight, Difference (%) [1, 8]: 9.9%; root fresh weight, Difference (%) [1, 8]: 67.5%; plant height, Mean ([2]; 22 days after sowing, salinity stress (irrigation with 8 g/l NaCl)): 27.55; relative chlorophyll content (SPAD), Mean ([2]; 29 days after sowing, salinity stress (8 g/l NaCl)): 35.30; plant height, Mean ([2]; 35 days after sowing, salinity stress (8 g/l NaCl)): 37.39; plant vigour, Mean ([2]; 43 days after sowing, salinity stress (8 g/l NaCl)): 8.68; fresh foliar biomass, Mean ([2]; 50 days after sowing, salinity stress (8 g/l NaCl)): 10.6; plant height, Difference (%) ([2]; compared to stressed control, 22 days after sowing, salinity stress): 6.8%; relative chlorophyll content (SPAD), Difference (%) ([2]; compared to stressed control, 29 days after sowing, salinity stress): 17.1%; plant height, Difference (%) ([2]; compared to stressed control, 35 days after sowing, salinity stress): 17.2%; plant vigour, Difference (%) ([2]; compared to stressed control, 43 days after sowing, salinity stress): 9.9%; fresh foliar biomass, Difference (%) ([2]; compared to stressed control, 50 days after sowing, salinity stress): 29.3%; foliar dry weight, Mean [3, 9]: 12.64; foliar fresh weight, Mean [3, 9]: 49.1; plant vigour, Mean [3, 9]: 9.4; foliar dry weight, Difference (%) [3, 10]: 55.9%; foliar fresh weight, Difference (%) [3, 10]: 24.9%; plant vigour, Difference (%) [3, 10]: 23.7%; linear electron flow (LEF), Mean [4, 11]: 10.14; photosynthetic efficiency (photosystem II efficiency, Phi2), Mean [4, 11]: 0.32; root length, Mean [4, 11]: 263.3; linear electron flow (LEF), Difference (%) [4, 12]: −4.3%; non-photochemical quenching (NPQt), Difference (%) [4, 12]: −10.0%; photosynthetic efficiency (Phi2), Difference (%) [4, 12]: 5.7%; root length, Difference (%) [4, 12]: 16.4%; non-photochemical quenching (NPQt), Mean ([4]; indicator of plant stress level, drought stress (75% reduced irrigation), ANE alone 2 ml/kg, CAR alone 0.3 g/kg): 2.32; decrease in LEF ([4]; stated as decrease vs stressed control, CAR at 0.3 g/kg, drought stress): 4.3%; non-photochemical quenching (NPQt), Mean ([5]; cold stress 13/8° C. day/night for 4 days, Carnitine alone 0.30 g (Table 20 solutions)): 0.40; non-photochemical quenching (NPQt), Difference (%) ([5]; compared to stressed control, cold stress, Carnitine alone 0.30 g): −4.8%; shoot weight (Shoot Fresh Weight), Mean ([6]; Carnitine alone 0.30 g): 1.69; non-photochemical quenching (NPQt), Mean ([6]; Carnitine alone 0.30 g (Table 20 solutions)): 0.76; non-photochemical quenching (NPQt), Difference (%) [6, 13]: −12.4%; shoot weight, Difference (%) [6, 13]: 3.0%
